#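 Five concentrations, 48 hours, 96-well plates. GI50 is the concentration that inhibits growth by half.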 Calls of active or inactive are those of the source. Rule as the data show it: active = GI50 up to about 1.1 µM and inactive = higher.
# Tests used:
# Experiment in all cases: inhibition of tumour cell growth, NCI panel, 48 h
# A498 = test system: A498
# A549 = test system: A549
# CCRF-CEM = test system: CCRF-CEM
# DU-145 = test system: DU-145
# HOP-92 = test system: HOP-92
# IGROV-1 = test system: IGROV-1
# MDA-MB-435 = test system: MDA-MB-435
# Malme-3M = test system: Malme-3M
# NCI-H23 = test system: NCI-H23
# NCI-H460 = test system: NCI-H460
# OVCAR-4 = test system: OVCAR-4
# PC-3 = test system: PC-3
# SF-295 = test system: SF-295
# SF-539 = test system: SF-539
# SK-MEL-28 = test system: SK-MEL-28
# SN12C = test system: SN12C
# SNB-75 = test system: SNB-75
# SR = test system: SR
# SW-620 = test system: SW-620
# UACC-62 = test system: UACC-62
Compound,GI50 (A498),GI50 (A549),GI50 (CCRF-CEM),GI50 (DU-145),GI50 (HOP-92),GI50 (IGROV-1),GI50 (MDA-MB-435),GI50 (Malme-3M),GI50 (NCI-H23),GI50 (NCI-H460),GI50 (OVCAR-4),GI50 (PC-3),GI50 (SF-295),GI50 (SF-539),GI50 (SK-MEL-28),GI50 (SN12C),GI50 (SNB-75),GI50 (SR),GI50 (SW-620),GI50 (UACC-62)
O=C1CCCc2cc3c(cc21)CC1(C3)Cc2cc3c(cc2C1)C(=O)CCC3,5.45 µM (inactive),1.39 µM (inactive),0.998 µM (active),2.18 µM (inactive),6.78 µM (inactive),1.38 µM (inactive),0.231 µM (active),0.798 µM (active),2.2 µM (inactive),1.22 µM (inactive),4.43 µM (inactive),1.24 µM (inactive),0.923 µM (active),1.12 µM (active),3.23 µM (inactive),4.46 µM (inactive),2.2 µM (inactive),0.106 µM (active),0.815 µM (active),0.531 µM (active)
CCOC(=O)c1c(SC(=O)/C=C/c2ccccc2)n(-c2ccccc2)c(=S)n(-c2ccccc2)c1=O,> 100 µM (inactive),> 100 µM (inactive),> 100 µM (inactive),> 100 µM (inactive),> 100 µM (inactive),> 100 µM (inactive),> 100 µM (inactive),> 100 µM (inactive),> 100 µM (inactive),> 100 µM (inactive),> 100 µM (inactive),> 100 µM (inactive),> 100 µM (inactive),> 100 µM (inactive),> 100 µM (inactive),> 100 µM (inactive),> 100 µM (inactive),> 100 µM (inactive),> 100 µM (inactive),> 100 µM (inactive)
CC(C)=NOC(=O)CNC(=O)C(Cc1ccccc1)NC(=O)C(C)NC(=O)OC(C)(C)C (stereo not drawn),> 100 µM (inactive),> 100 µM (inactive),> 100 µM (inactive),> 100 µM (inactive),> 100 µM (inactive),> 100 µM (inactive),> 100 µM (inactive),> 100 µM (inactive),> 100 µM (inactive),> 100 µM (inactive),> 100 µM (inactive),> 100 µM (inactive),> 100 µM (inactive),> 100 µM (inactive),> 100 µM (inactive),> 100 µM (inactive),> 100 µM (inactive),> 100 µM (inactive),> 100 µM (inactive),> 100 µM (inactive)
O=C(Nc1nc(C23CC4CC(CC(C4)C2)C3)cs1)c1cc2cc(Br)cc(Br)c2oc1=O,> 100 µM (inactive),53 µM (inactive),27.7 µM (inactive),65.5 µM (inactive),46 µM (inactive),> 100 µM (inactive),67.5 µM (inactive),> 100 µM (inactive),> 100 µM (inactive),37 µM (inactive),58.1 µM (inactive),71.1 µM (inactive),40.6 µM (inactive),51.8 µM (inactive),> 100 µM (inactive),31.8 µM (inactive),26.9 µM (inactive),32.3 µM (inactive),43.2 µM (inactive),> 100 µM (inactive)
O=C(NC12CC3CC(CC(C3)C1)C2)n1cnc2cncnc21,65.9 µM (inactive),47.5 µM (inactive),26.5 µM (inactive),25.6 µM (inactive),28.2 µM (inactive),26.6 µM (inactive),31.3 µM (inactive),26 µM (inactive),37.8 µM (inactive),32.3 µM (inactive),,25.8 µM (inactive),21.6 µM (inactive),25.1 µM (inactive),> 100 µM (inactive),36 µM (inactive),44.5 µM (inactive),24.4 µM (inactive),39.8 µM (inactive),39.2 µM (inactive)
CCC(C)C(NC(=O)c1cccc2c(=O)c3ccccc3[nH]c12)C(=O)O (stereo not drawn),> 100 µM (inactive),98.9 µM (inactive),64 µM (inactive),> 100 µM (inactive),94.4 µM (inactive),96.8 µM (inactive),> 100 µM (inactive),> 100 µM (inactive),> 100 µM (inactive),,43.8 µM (inactive),> 100 µM (inactive),83.4 µM (inactive),,> 100 µM (inactive),> 100 µM (inactive),78.7 µM (inactive),> 100 µM (inactive),> 100 µM (inactive),> 100 µM (inactive)
C=CCc1c(Cl)nc(Cl)nc1Cl,1.94 µM (inactive),2.04 µM (inactive),< 0.01 µM (active),2.01 µM (inactive),0.255 µM (active),0.323 µM (active),0.321 µM (active),0.159 µM (active),0.422 µM (active),0.565 µM (active),0.243 µM (active),0.733 µM (active),1.93 µM (inactive),1.04 µM (active),0.431 µM (active),0.258 µM (active),1.08 µM (active),< 0.01 µM (active),0.0495 µM (active),0.333 µM (active)
O=C(OCC1CCCN2CCCCC12)c1ccncc1 (stereo not drawn),> 100 µM (inactive),> 100 µM (inactive),> 100 µM (inactive),> 100 µM (inactive),> 100 µM (inactive),> 100 µM (inactive),> 100 µM (inactive),> 100 µM (inactive),> 100 µM (inactive),> 100 µM (inactive),> 100 µM (inactive),> 100 µM (inactive),> 100 µM (inactive),> 100 µM (inactive),> 100 µM (inactive),> 100 µM (inactive),> 100 µM (inactive),> 100 µM (inactive),> 100 µM (inactive),> 100 µM (inactive)
CC(=O)NNC1=NN(C(C)=O)C2(S1)C(=O)Nc1ccc(C)cc12 (stereo not drawn),38.1 µM (inactive),94 µM (inactive),48.4 µM (inactive),> 100 µM (inactive),29 µM (inactive),66.5 µM (inactive),> 100 µM (inactive),49.7 µM (inactive),> 100 µM (inactive),67 µM (inactive),88.1 µM (inactive),67.5 µM (inactive),97.9 µM (inactive),> 100 µM (inactive),78.3 µM (inactive),> 100 µM (inactive),45.7 µM (inactive),55.5 µM (inactive),,39.4 µM (inactive)
O=[N+]([O-])c1cccc([N+](=O)[O-])c1Cl,21.8 µM (inactive),14.9 µM (inactive),,2.86 µM (inactive),18.8 µM (inactive),15.9 µM (inactive),17.9 µM (inactive),17.4 µM (inactive),16.6 µM (inactive),23.3 µM (inactive),22.8 µM (inactive),13.5 µM (inactive),16.1 µM (inactive),17.9 µM (inactive),21.1 µM (inactive),23.4 µM (inactive),30.3 µM (inactive),3.93 µM (inactive),17 µM (inactive),17.5 µM (inactive)
COC(=O)CC1c2ccccc2N2C(=O)Cc3c([nH]c4ccccc34)C12 (stereo not drawn),> 100 µM (inactive),> 100 µM (inactive),> 100 µM (inactive),> 100 µM (inactive),55.8 µM (inactive),> 100 µM (inactive),> 100 µM (inactive),66.5 µM (inactive),> 100 µM (inactive),> 100 µM (inactive),31.4 µM (inactive),> 100 µM (inactive),7.93 µM (inactive),,> 100 µM (inactive),> 100 µM (inactive),> 100 µM (inactive),> 100 µM (inactive),> 100 µM (inactive),> 100 µM (inactive)
CCOC(=O)P(=O)(O)c1ccc(N(C)Cc2ccccc2)cc1,> 100 µM (inactive),> 100 µM (inactive),> 100 µM (inactive),> 100 µM (inactive),> 100 µM (inactive),> 100 µM (inactive),> 100 µM (inactive),> 100 µM (inactive),> 100 µM (inactive),,> 100 µM (inactive),> 100 µM (inactive),> 100 µM (inactive),> 100 µM (inactive),> 100 µM (inactive),> 100 µM (inactive),> 100 µM (inactive),> 100 µM (inactive),> 100 µM (inactive),> 100 µM (inactive)
O=C1CC[N+]2=Cc3ccccc3O[B-]2(c2ccccc2)O1 (stereo not drawn),> 100 µM (inactive),> 100 µM (inactive),> 100 µM (inactive),> 100 µM (inactive),21.5 µM (inactive),> 100 µM (inactive),> 100 µM (inactive),> 100 µM (inactive),> 100 µM (inactive),> 100 µM (inactive),> 100 µM (inactive),> 100 µM (inactive),> 100 µM (inactive),> 100 µM (inactive),> 100 µM (inactive),> 100 µM (inactive),67.1 µM (inactive),> 100 µM (inactive),> 100 µM (inactive),> 100 µM (inactive)
C/C(=N\NC(N)=S)c1ccccn1.OB(O)c1ccccc1,5.89 µM (inactive),5.51 µM (inactive),2.18 µM (inactive),3.3 µM (inactive),10.4 µM (inactive),4.46 µM (inactive),7.55 µM (inactive),8.63 µM (inactive),11.3 µM (inactive),3.78 µM (inactive),4.25 µM (inactive),4.15 µM (inactive),7.05 µM (inactive),3.6 µM (inactive),9.23 µM (inactive),3.52 µM (inactive),12.9 µM (inactive),3.95 µM (inactive),5.93 µM (inactive),3.25 µM (inactive)

# Reference: ChEMBL document CHEMBL1201862, “PubChem BioAssay data set” (2004)
